Data as given in patent US7803559B1, “Protein aggregation regulators” (The Regents of the University of CA, priority 2003, dated 2010).
Where a name gives a salt, the structure may show the parent alone. Read-outs that look alike come from different tables or passages of the source.

Experiments:
[1] = system: ARN127(65)CFP/YFP; assay: Secondary screen using the AR FRET assay; type: cell-based, human
Description: Selected candidate compounds and/or libraries of compounds were screened as follows. Daughter plates were created in duplicate from the 384-well microtiter plates that contained the compounds at a concentration of 80 μg/ml. […] To screen a library, HEK293 cells stably expressing RFP were plated in 10 cm plates to obtain ˜80% confluency on the day of transfection. Each plate was transfected with 2 μg of ARN127(65)CFP/YFP each, and 0.7 μg p6RGRΔ using 50 μL Plus Reagent™ and 76 μL Lipofectamine™ according to manufacturer's protocol (Invitrogen). After 3 hours, complete medium was added and the plates were incubated further for 3 hours. […] The cells were then cultured for ˜48 hours to allow aggregate formation. After fixing the cells FRET signal was measured using a SAFIRE Fluorescence Plate Reader (Tecan, Inc.) according to methods described above. Several internal controls were used to standardize each experiment. Mock transfected cells were used to control for background autofluorescence and light scattering by mammalian cells. To control for CFP bleedthrough and crossover excitation of YFP, additional wells contained cells expressing ARN127(25)CFP or ARN127(25)YFP alone. RFP was measured to control for non-specific effects on steady-state protein levels. ARN127(25)CFP/YFP expression served as a reference point for background FRET levels without aggregation (a theoretical maximum effect on aggregation inhibition). FRET measurements for each experiment were thus scaled between 100% (cells with no drug treatment) and 0% (FRET levels from unexpanded protein).
Selected candidate compounds from the primary screen of all three libraries were assayed again in a secondary screen using the AR FRET assay.
Finally, the role of F-actin in preventing polyglutamine aggregation was investigated by treating cells with two agents that prevent actin depolymerization: phalloidin and jasplakinolide.

[2] = system: ARN127(65)CFP/YFP; assay: Primary high-throughput AR FRET screen of three libraries; type: cell-based, human; details: compounds at 4 μg/ml, HEK293, ARN127(65)CFP/YFP + GRΔ, 100 nM dex, ~48 hours
Description: (§1) Selected candidate compounds and/or libraries of compounds were screened as follows. Daughter plates were created in duplicate from the 384-well microtiter plates that contained the compounds at a concentration of 80 μg/ml. Compounds were aliquoted in 96-well plates (Costar™ 3603) at a concentration at which most of the compounds are active, but are not toxic to the cells (e.g., of 4 μg/ml). To screen a library, HEK293 cells stably expressing RFP were plated in 10 cm plates to obtain ˜80% confluency on the day of transfection. Each plate was transfected with 2 μg of ARN127(65)CFP/YFP each, and 0.7 μg p6RGRΔ using 50 μL Plus Reagent™ and 76 μL Lipofectamine™ according to manufacturer's protocol (Invitrogen). After 3 hours, complete medium was added and the plates were incubated further for 3 hours. […] The cells were then cultured for ˜48 hours to allow aggregate formation. After fixing the cells FRET signal was measured using a SAFIRE Fluorescence Plate Reader (Tecan, Inc.) according to methods described above. Several internal controls were used to standardize each experiment. Mock transfected cells were used to control for background autofluorescence and light scattering by mammalian cells. To control for CFP bleedthrough and crossover excitation of YFP, additional wells contained cells expressing ARN127(25)CFP or ARN127(25)YFP alone. RFP was measured to control for non-specific effects on steady-state protein levels. ARN127(25)CFP/YFP expression served as a reference point for background FRET levels without aggregation (a theoretical maximum effect on aggregation inhibition). FRET measurements for each experiment were thus scaled between 100% (cells with no drug treatment) and 0% (FRET levels from unexpanded protein). Last, each plate also contained wells treated with Y-27632 (50 μM) as a positive control.
as §1, with “Daughter” for “Selected candidate compounds and/or libraries of compounds were screened as follows. Daughter”, “a single concentration, e.g.,” for “a concentration of”, “concentration of 4 μg/ml,” for “concentration”, “the cells.” for “the cells (e.g., of 4 μg/ml).”, “screen the” for “screen a”

[3] = target: T1, htt(72)CFP/YFP (Homo sapiens, UniProt P42858, INS38QQQQQQQQQQQQQQQQQQQQQQQQQQQQQQQQQQQQQQQQQQQQQQQQQQQ); assay: FRET based assay of htt aggregation; type: cell-based; details: HEK293, htt(72)CFP/YFP, 24 hours
T1 construct: htt exon 1 fragment derived from plasmid qp72; expressed in transfected cells; host or cells: HEK293
T1 sequence (P42858 with tags, fused parts or gaps, stated change not applied): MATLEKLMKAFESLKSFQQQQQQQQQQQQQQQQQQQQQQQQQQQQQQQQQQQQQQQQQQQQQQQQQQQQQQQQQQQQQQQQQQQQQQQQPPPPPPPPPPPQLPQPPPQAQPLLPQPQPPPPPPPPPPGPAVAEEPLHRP
Description: Aggregation of htt was monitored using the FPR FRET based HTS described herein for assaying aggregation of AR, using plasmids with htt exon 1-CFP and -YFP fusions containing 72 repeats (htt(72)CFP/YFP). HEK293 cells were transfected with htt(72)CFP/YFP as above, and cells were plated into a 96-well dish in the presence or absence of various concentrations of test compounds. After 24 hours, cells were fixed in 4% paraformaldehyde, and FRET signal was determined from the cell monolayers by reading on the FPR.

[4] = secondary screen, AR FRET assay, Table 3
[5] = agents that prevent actin depolymerization, Table 5

| Molecule | Max % Inhibition [1, 4] [%] | % Inhibition [2] [%] | also measured |
| --- | --- | --- | --- |
| DL-alanine,2,4-chlorophenyl-1,1-dimethylethyl ester [Alaproclate] | 17 | – | – |
| Cl.NC[C@@H]1O[C@H](C23CC4CC(CC(C4)C2)C3)Cc2c1ccc(O)c2O [A-77636 hydrochloride] | – | 64 | – |
| COc1cc2nc[nH]c(=O)c2cc1OC(C)=O [Compound 4, Acetic acid 7-methoxy-4-oxo-3,4-dihydro-quinazolin-6-yl ester] | 28 | – | Max % Inh. in Htt [3]: 15% |
| Cn1cnc([N+](=O)[O-])c1Sc1ncnc2nc[nH]c12 [Azathioprine] | – | 74.5 | – |
| L-Canavanine Free Base | – | 73 | – |
| Nc1nc2c(nc(Br)n2[C@@H]2O[C@@H]3COP(=O)([O-])O[C@H]3[C@H]2O)c(=O)[nH]1.[Na+] [8-Bromoguanosine 3′,5′-cyclic monophosphate sodium salt] | – | 71 | – |
| COC1=C2CC[C@@H]3[C@H](CC[C@]4(C)C(=O)CC[C@@H]34)[C@@]2(C)CCC1=O [4-Androsten-4-ol-3,17-dione 4-methyl ether] | – | 65.3 | – |
| COc1ccc2c(c1OC)C(=O)O[C@H]2[C@@H]1c2cc3c(cc2CCN1C)OCO3 [1S,9R-beta hydrastine, 1S,9R-(+)-beta hydrastine] | 18 | – | – |
| C/C1=C\[C@H](C)C[C@H](C)OC(=O)C[C@H](c2ccc(O)cc2)NC(=O)[C@@H](Cc2c(Br)[nH]c3ccccc23)N(C)C(=O)[C@H](C)NC(=O)[C@@H](C)C1 [Jasplakinolide] | – | – | Max % Inhibition [1, 5]: 30% |
| Nc1ccc(S(=O)(=O)Nc2ncccn2)cc1 [Sulfadiaine Free Acid] | – | 80 | – |
| CCCCC/C=C\C/C=C\C/C=C\C/C=C\CCCC(=O)O [Arachidonic acid, cis,cis,cis,cis-5,8,11,14-Eicosatetraenoic aci] | 19 | – | – |
| COc1cc2ncnc(Nc3ccc(F)c(Cl)c3)c2cc1OCCCN1CCOCC1 [Iressa, (3-Chloro-4-fluoro-phenyl)-[7-methoxy-6-(3-morpholin-4-yl-propoxy)-quinazolin-4-yl]-amine] | – | – | Max % Inh. in Htt [3]: 20% |
| O=C1CC(c2ccc(O)cc2)Oc2cc(O)cc(O)c21 (racemic) [Naringenin, (±)-2,3-Dihydro-5,7-dihydroxy-2-(4-hydroxyphenyl)-4H-1-benzopyran-4-one] | 19 | – | – |
| (2-hydroxyethyl) trimethylammonium chloride carbamate [Carbachol] | – | – | Max % Inhibition [1]: 20% |
| NC(N)=NCCC[C@H](N)C(=O)C[C@@H](Cc1ccc(O)cc1)C(=O)O.NC(N)=NCCC[C@H](N)C(=O)C[C@@H](Cc1ccc(O)cc1)C(=O)O.O=S(=O)(O)O [Arphamenine B Hemisulfate Salt: Hydrate] | – | 69.7 | – |
| Cc1cc(-c2ccccc2)nnc1NCCN1CCOCC1 [Minaprine HCl, N-(4-Methyl-6-phenyl-3-pyridazinyl)-4-morpholineethanamin] | 18 | – | – |
| Cc1ccc(S(=O)(=O)N[C@@H](CCC(N)=O)C(=O)OC(C)C)cc1 [N-(P-Tosyl)-L-Glutamine Isopropyl Ester] | – | 80.6 | – |

| Molecule | Max % Inhibition [1, 4] [%] | % Inhibition [2] [%] | also measured |
| --- | --- | --- | --- |
| NCCCCCCNS(=O)(=O)c1cccc2ccccc12 [N-6-Aminohexyl-1-Naphthalenesulfonamide] | – | 79.7 | – |
| CC(C)(C)NCC(O)COc1cccc2c1CC(O)C(O)C2 (stereo not drawn) [Nadolol] | 19 | – | – |
| O=C(O)c1ccccc1OP(=O)(O)O [Fosfosal, 2-phosphonooxybenzoic acid] | 23 | – | – |
| NCc1ccc(Cl)cc1Cl [2,4-Dichlorobenzylamine] | – | 85 | – |
| CNCCc1ccccn1.Cl.Cl [Betahistine hydrochloride, N-methyl-N-(2-pyridin-2-ylethyl)amine dihydrochloride] | 19 | – | – |
| CC1=CC(=O)C2=C(C)CCC3[C@H](C)C(=O)O[C@@H]3[C@H]12 (stereo partly drawn) [Leucodin, (3S,9aR,9bS)-3,6,9-trimethyl-3,3a,4,5,9a,9b-hexahydroazuleno-[4,5-b]furan-2,7-dione] | 23 | – | – |
| Cc1nnc(SCC2=C(C(=O)O)N3C(=O)[C@@H](NC(=O)Cn4cnnn4)[C@H]3SC2)s1 [Cefazolin sodium] | – | 70 | – |
| COc1cc(C)c(C(=O)Oc2cc(C)c(C(=O)O)c(O)c2C)c(OC)c1C [Diffractic acid, 4-[(2,4-dimethoxy-3,6-dimethylbenzoyl)-oxy]-2-hydroxy-3,6-dimethylbenzoic acid] | 20 | – | – |
| N,N-bis(4-aminobutyl)amine [Spermidine HCl] | 19 | – | – |
| Oc1cc(O)cc(/C=C/c2ccc(O)c(O)c2)c1 [Piceatannol, 3,3′4,5′-Tetrahydroxy-Trans-stilbene] | 23 | – | Max % Inh. in Htt [3]: 28% |
| CCOC(=O)Nc1c[n+](N2CCOCC2)no1 [Molsidomine, N-(Ethoxycarbonyl)-3-(4-morpholino)sydnone imine] | 20 | – | – |
| O=c1ncnc2n([C@H]3O[C@@H](CO)[C@H](O)[C@@H]3O)[nH]cc1-2 (stereo in doubt) [Allopurinol riboside] | – | 71.8 | – |
| Phalloidin | – | – | Max % Inhibition [1, 5]: 35% |
| CO[C@@H]1O[C@H](CO)[C@H](O)[C@H](O[C@@H]2O[C@H](CO)[C@@H](O)[C@H](O)[C@H]2NC(C)=O)[C@H]1O [Methyl 3-O-(2-Acetamido-2-Deoxy-B-D-Glucopyranosyl)-B-D-Galactopyranoside] | – | 70 | – |
| Cytosine beta-D-arabinofuranoside Hydrochloride | – | 81 | – |
| NS(=O)(=O)c1cc2c(cc1Cl)N=CNS2(=O)=O [Chlorothiazide, 6-Chloro-2H-1,2,4-benzothiadiazine-7-sulfonamide 1,1-dioxide] | 19 | – | – |
| COc1ccc([C@@H]2Sc3ccccc3N(CCN(C)C)C(=O)[C@@H]2OC(C)=O)cc1.Cl (relative stereo) [Diltiazem HCl, (2S,3S)-(+)-cis-3-Acetoxy-5-(2-dimethylaminoethyl)-2,3-dihydro-2-(4-methoxyphenyl)-1,5-benzothiazepin-4(5H)-one hydrochloride] | 22 | – | – |
